Tests used:
Cyp-D = Cyp-D (Homo sapiens, UniProt P30405); experiment: Cyp-D peptidyl prolyl cis-trans isomerase enzymatic activity; format: biochemical; details: at concentrations completely blocking MPTP
MPTP [1] = experiment: MPTP induced by phenylarsineoxide or ATR; format: biochemical
YVDAC1 = target: T1, YVDAC1 (Saccharomyces cerevisiae, UniProt P04840); experiment: Affinity labeling of yeast mitochondria (Δpor1 and Δpor1 expressing YVDAC1); format: binding; details: Δpor1 yeast mitochondria expressing YVDAC1; increasing concentration
T1 construct: expressed in transfected cells; host or cells: Δpor1 yeast strain carrying a YVDAC1 plasmid; isolated mitochondria
T1 sequence (P04840 2-283): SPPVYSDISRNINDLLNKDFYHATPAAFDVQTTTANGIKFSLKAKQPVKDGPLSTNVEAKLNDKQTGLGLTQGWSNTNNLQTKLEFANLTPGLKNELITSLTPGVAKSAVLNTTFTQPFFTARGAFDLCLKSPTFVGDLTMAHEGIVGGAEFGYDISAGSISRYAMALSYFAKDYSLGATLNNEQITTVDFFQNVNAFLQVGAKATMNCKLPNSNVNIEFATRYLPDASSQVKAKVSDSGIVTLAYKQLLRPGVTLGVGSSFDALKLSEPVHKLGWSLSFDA
Source text: FIG. 9: Spiro[cyclopentane-1,5′-[5H]dibenzo[a,d]cyclohepten]-2-one,10′,11′-t2-10′,11′-dihydro-3-methylene affinity labeling of yeast mitochondria lacking the por1 gene for YVDAC1 (Δpor1) and into Δpor1 yeast mitochondria transfected with YVDAC1 in presence or absence of different concentrations of Spiro[cyclopentane-1,5′-[5H]dibenzo[a,d]cyclohepten]-2-one,10′,11′-dihydro-3-methylene (unlabeled). The fluorograms of gels after SDS-PAGE are shown. Mitochondria isolated from yeast strains were incubated in the presence of 10 nM Spiro[cyclopentane-1,5′-[5H]dibenzo[a,d]cyclohepten]-2-one,10′,11′-t2-10′,11′-dihydro-3-methylene for 15 min at 25° C. Numbers indicate the concentrations (μM) of the various compounds added.
To further confirm VDAC1 as the protein target of Spiro[cyclopentane-1,5′-[5H]dibenzo[a,d]cyclohepten]-2-one,10′,11′-dihydro-3-methylene-, the labeling of proteins in mitochondria prepared from yeasts by Spiro[cyclopentane-1,5′-[5H]dibenzo[a,d]cyclohepten]-2-one,10′,11′-t2-10′,11′-dihydro-3-methylene- was investigated. […] Increasing concentration of unlabelled Spiro[cyclopentane-1,5′-[5H]dibenzo[a,d]cyclohepten]-2-one,10′,11′-dihydro-3-methylene-inhibited incorporation of the radioactivity (FIG. 9).

MPTP [2] = target: T2, MPTP (Rattus norvegicus, UniProt Q9Z2L0); experiment: Ca2+-retention capacity of rat brain mitochondria (Calcium Green-5N); format: biochemical; details: 1 μM compound; 5 μM Ca2+ pulses; mean±SEM of 3; control 530±70
T2 construct: other: n=2; glutamate/malate; other: glutamate/malate; 20 min; mean±SEM; unit not given; other: 300 nM; relieved by 50 μM Ub5
T2 sequence (Q9Z2L0 2-283): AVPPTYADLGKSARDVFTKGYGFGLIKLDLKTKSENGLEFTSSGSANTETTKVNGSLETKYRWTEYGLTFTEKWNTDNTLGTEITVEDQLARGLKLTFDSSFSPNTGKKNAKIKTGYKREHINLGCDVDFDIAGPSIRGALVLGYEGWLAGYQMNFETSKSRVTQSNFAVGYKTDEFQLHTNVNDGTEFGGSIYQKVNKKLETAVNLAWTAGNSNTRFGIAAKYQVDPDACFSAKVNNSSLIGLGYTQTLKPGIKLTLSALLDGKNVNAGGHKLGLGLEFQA
Protocol: FIG. 4: (A) Effect of Spiro[cyclopentane-1,5′-[5H]dibenzo[a,d]cyclohepten]-2-one,10′,11′-dihydro-3-methylene- and CsA on Ca^2+-retention capacity of rat brain mitochondria. The incubation medium contained 0.2 M sucrose, 10 mM Tris-Mops, pH 7.4, 1 mM Pi-Tris, 5 μM EGTA and 5 mM glutamate/2.5 mM malate, buffered to pH 7.4 with Tris, containing 0.01% (w/v) bovine serum albumin and 1 μM Calcium Green-5N. The final volume was 2.5 ml. Trace (a) control, (b) 1 μM CsA, (c) 1 μM Spiro[cyclopentane-1,5′-[5H]dibenzo[a,d]cyclohepten]-2-one,10′,11′-dihydro-3-methylene- and (d) 1 μM CsA plus 1 μM Spiro[cyclopentane-1,5′-[5H]dibenzo[a,d]cyclohepten]-2-one,10′,11′-dihydro-3-methylene-. Each fluorescence spike corresponds to addition of 5 μM Ca^2+. (B) Comparison of Ca^2+-retention capacity in liver (a) and brain mitochondria (b).
Effect of Spiro[cyclopentane-1,5′-[5H]dibenzo[a,d]cyclohepten]-2-one,10′,11′-dihydro-3-methylene- and CsA on Ca^2+-retention capacity of rat brain mitochondria (FIG. 4). Measurement of extramitochondrial Ca^2+ was determined using a Perkin-Elmer LS-50B fluorimeter controlled by the FL WinLab computer program. […] The final volume was 2.5 ml and the cuvette was thermostated at 25° C. Brain mitochondria were then subjected to a train of 5 μM Ca^2+ additions (˜150 nmol mg protein^−1). Extramitochondrial Ca^2+ was monitored at excitation/emission wavelengths of 505-535. […] The Ca^2+-retention capacity in liver (a) and brain mitochondria (b) were also compared (FIG. 4B).
The effect of Spiro[cyclopentane-1,5′-[5H]dibenzo[a,d]cyclohepten]-2-one,10′,11′-dihydro-3-methylene- at inhibiting MPTP was also investigated in mitochondria isolated from rat forebrain. […] Due to the difficulties mentioned above, the effect of Spiro[cyclopentane-1,5′-[5H]dibenzo[a,d]cyclohepten]-2-one,10′,11′-dihydro-3-methylene- on MPTP in brain mitochondria was more accurately investigated by subjecting mitochondria isolated from rat forebrain to a series of Ca^2+ pulses (5 μM, ˜150 nmol mg protein^−1) and by monitoring extramitochondrial Ca^2+ or using fluororescent probes.

Cyp-D, sequence (P30405 30-207): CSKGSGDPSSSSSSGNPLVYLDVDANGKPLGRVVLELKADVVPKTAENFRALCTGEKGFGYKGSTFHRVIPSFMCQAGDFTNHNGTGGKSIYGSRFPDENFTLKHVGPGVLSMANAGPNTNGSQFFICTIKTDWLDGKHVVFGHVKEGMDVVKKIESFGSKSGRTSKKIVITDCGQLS

C=C1CCC2(C1=O)c1ccccc1CCc1ccccc12 [Spiro[cyclopentane-1,5′-[5H]dibenzo[a,d]cyclohepten]-2-one,10′,11′-dihydro-3-methylene-]
Inhibition of Cyp-D peptidyl prolyl cis-trans isomerase activity (Cyp-D): did not inhibit
Inhibition of MPTP induced by ATR (MPTP [1]; ATR 50 μM): inhibited
Inhibition of MPTP induced by phenylarsineoxide (MPTP [1]; phenylarsineoxide 25 μM): inhibited
Effect of unlabelled compound on incorporation of radioactivity (YVDAC1): inhibited
Ca2+-buffering capacity (MPTP [2]): 1200±120 nmol Ca^2+ mg protein^−1

Reference: patent US7642283B2, “Mitochrondrial permeability transition pore affinity labels and modulators” (Hoffmann-La Roche Inc., priority 2003, dated 2010)
